From patent US10603357B2, “Therapeutic TREM-1 peptides” (Universite de Lorraine, priority 2004, dated 2020) come the findings set out here.

In experiment [1] the test system is human monocytes. As to the kind of experiment: in vitro stimulation of monocytes: TNF-α, IL-1β and sTREM-1 release. The class given is cell-based. To be noted: P5 or control peptide 10 to 100 ng/mL, rIL-10 500 U/mL. On the procedure:
For cell activation, primary monocytes were cultured in 24-well flat-bottom tissue culture plates in the presence of LPS (1 μg/mL). In some experiments this stimulus was provided in combination with P5 (10 to 100 ng/mL), control peptide (10 to 100 ng/mL) or rIL-10 (500 U/mL). To activate monocytes through TREM-1, an agonist anti-TREM-1 mAb (10 μg/mL) was added as indicated. Cell-free supernatants were analysed for production of TNF-α, IL-1β. and sTREM-1 by ELISA or immunodot. All experiments were performed in triplicate and data are expressed as means (SEM). • a: Media • b: P5 10 ng/mL • c: Anti-TREM-1 • d: LPS • e: LPS+Anti-TREM-1 • f: LPS+P5 10 ng/mL • g: LPS+P5 50 ng/mL • h: LPS+P5 100 ng/mL • i: LPS+IL10
Ten mL of peripheral blood samples were collected on EDTA-K from 5 healthy volunteer donors originating from laboratory staff. After dilution in RPMI (Life Technologies, Grand Island, N.Y.) v/v, blood was centrifuged for 30 min at room temperature over a Ficoll gradient (Amersham Pharmacia, Uppsala, Sweden) to isolate PBMC. The cells recovered above the gradient were washed and counted. In order to deplete the suspensions of lymphocytes, cells were then plated in 24-well flat-bottom tissue culture plates (Corning, Corning, N.Y.) at a concentration of 5×10^6/mL and allowed to adhere during 2 hours at 37° C. The resulting lymphocyte suspension was discarded and the adhering monocytic cells were maintained in a 5% CO2 incubator at 37° C. in complete medium (RPMI 1640, 0.1 mM sodium pyruvate, […], 50 μg/mL Streptomycin; Life Technologies) supplemented with 10% FCS (Invitrogen, Cergy, France).
For activation, monocytes were cultured in the presence of E. coli LPS (0111:B4, 1 μg/mL, Sigma-Aldrich, La Verpillière, France). Cell viability was assessed by trypan blue exclusion and by measuring lactate dehydrogenase release. In some experiments, this stimulus was given in combination with TNF-α (5 to 100 ng/mL, R&D Systems, Lille, France), IL-1β (5 to 100 ng/mL, R&D Systems), rIFN-γ (up to 100 U/mL, R&D Systems), rIL-10 (500 U/ml, R&D Systems) or up to 100 ng/mL of P5 or control peptide.
In order to activate monocytes through TREM-1, an anti-TREM-1 agonist monoclonal antibody (R&D Systems) was added as follows: flat-bottom plates were precoated with 10 μg/mL anti-TREM-1 per well. After thorough washing in phosphate buffered saline (PBS), the monocyte suspensions were added at a similar concentration as above. Some experiments were performed in the presence of protease inhibitors (PMSF and Protease Cocktail Inhibitor; Invitrogen). Cell-free supernatants were assayed for the production of TNF-α and IL-1β by ELISA according to the recommendations of the manufacturer (BD Biosciences, San Diego, USA). To address the effect of P5 on NF-κB activity in monocytes, an ELISA-based assay was performed (BD Mercury™ Transfactor Kit, BD Biosciences). Monocytes were cultured for 24 hours in the presence of E. coli LPS (O111:B4, 1 μg/mL), and/or an agonist anti-TREM-1 monoclonal antibody (10 μg/mL), and/or P5 (100 ng/mL). Whole-cell extracts were then prepared and levels of NF-κB p50 and p65 were determined according to the recommendations of the manufacturer. All experiments were performed in triplicate and data are expressed as means (SEM). Identification and Quantitation of sTREM-1 Release
Primary monocytes suspensions were cultured as described above. The cells were treated with E. coli LPS (0111:B4, 1 μg/mL) for 24 hours at 37° C. Cell-conditioned medium was submitted to Western-blotting using an anti-TREM-1 monoclonal antibody (R&D Systems) in order to confirm the presence of 27 kDa material recognized by anti-TREM-1. Soluble TREM-1 levels were measured by assessing the optical intensity of bands on immunodots by means of a reflectance scanner and the Quantity One Quantitation Software (Bio-Rad, Cergy, France) as reported elsewhere (18). […]

In experiment [2] the test system is BALB/c mice. Description: LPS-induced endotoxinemia in mice (Example 3). The class given is in vivo, mouse. To be noted: for Serum IL-1β / Serum TNF-α / Serum sTREM-1: endotoxemic mice, 100 μg. Here is the method:
P5 (50 μg or 100 μg) or control vector was administered 60 min before LPS.
P5 (75 μg) or control vector was administered 4 or 6 hours after LPS as indicated. […]
After approval by the local ethical committee, male Balb/C mice (20 to 23 g) were randomly grouped and treated with E. coli LPS intraperitoneally (i.p.) in combination with P5 (in 500 μl normal saline) or control vector before or after LPS challenge. In some experiments, 5 μg of an anti TREM-1 monoclonal antibody was administered i.p. one hour after LPS injection. The viability of mice was examined every hour, or animals were sacrificed at regular intervals. Serum samples were collected by cardiac puncture and assayed for TNF-α and IL-1β by ELISA (BD Biosciences), and for sTREM-1 levels by immunodot.

Setting [3] is: pre-treatment by 100 μg, 2 and 4 hours.

As for LQVTDSGLYRCVIYHPP [P5], the “TNF-α and IL-1β production (release of inflammatory cytokines) in monocyte supernatant” value in experiment [1] (LPS 1 μg/mL or LPS + anti-TREM-1 mAb) is recorded as “reduced, in a concentration-dependent manner”. The “release of sTREM-1 from monocytes cultured with LPS” value in experiment [1] (LPS 1 μg/mL) was “increased”. For the same sequence, the “protection against LD100 dose of LPS, delayed treatment” value in experiment [2] (75 μg, delayed up to 4 hours after LPS) is listed as “significant protection”. Also, in experiment [2] (LD100 of LPS), the “clinical appearance of treated mice” value is “remained well groomed and active, had no diarrhoea, and were lively”; the “late death over one week” value is on record as “No late death occurred”. Further, in experiment [2] (H2), the “Serum IL-1β” value came to 0.2 ± 0.1 ng/mL, the “Serum TNF-α” value is listed as 2.4 ± 0.5 ng/mL and the “Serum sTREM-1” value was 475 ± 37 ng/mL. In experiment [2] (H4), the “Serum IL-1β” value was found to be 0.9 ± 0.2 ng/mL, the “Serum TNF-α” value worked out at 0.1 ± 0.1 ng/mL and the “Serum sTREM-1” value was 243 ± 28 ng/mL. Also, in experiment [2] (setting [3]), the “increase of serum sTREM-1 levels compared to controls” value was 2 fold and the “reduction of serum cytokines levels compared to controls” value is 30%. Also, the protection from death entry in experiment [2] (single dose (50 μg or 100 μg) 60 min before LD100 of LPS) is recorded as “prevented from death in a dose-dependent manner”.
